{"source": "the kinase profiling compilation of Christmann-Franck et al. (2016)", "settings_in_all_cases": "compound 10.0 µM", "key": {"ROCK2 (human)": {"target": "ROCK2 (human) (UniProt O75116)"}, "RPS6KA1 KD1 (human)": {"target": "RPS6KA1 KD1 (human) (UniProt Q15418)"}, "STK38L (human)": {"target": "STK38L (human) (UniProt Q9Y2H1)"}, "MAPK4 (human)": {"target": "MAPK4 (human) (UniProt P31152)", "sequence (P31152 whole entry, looked up)": "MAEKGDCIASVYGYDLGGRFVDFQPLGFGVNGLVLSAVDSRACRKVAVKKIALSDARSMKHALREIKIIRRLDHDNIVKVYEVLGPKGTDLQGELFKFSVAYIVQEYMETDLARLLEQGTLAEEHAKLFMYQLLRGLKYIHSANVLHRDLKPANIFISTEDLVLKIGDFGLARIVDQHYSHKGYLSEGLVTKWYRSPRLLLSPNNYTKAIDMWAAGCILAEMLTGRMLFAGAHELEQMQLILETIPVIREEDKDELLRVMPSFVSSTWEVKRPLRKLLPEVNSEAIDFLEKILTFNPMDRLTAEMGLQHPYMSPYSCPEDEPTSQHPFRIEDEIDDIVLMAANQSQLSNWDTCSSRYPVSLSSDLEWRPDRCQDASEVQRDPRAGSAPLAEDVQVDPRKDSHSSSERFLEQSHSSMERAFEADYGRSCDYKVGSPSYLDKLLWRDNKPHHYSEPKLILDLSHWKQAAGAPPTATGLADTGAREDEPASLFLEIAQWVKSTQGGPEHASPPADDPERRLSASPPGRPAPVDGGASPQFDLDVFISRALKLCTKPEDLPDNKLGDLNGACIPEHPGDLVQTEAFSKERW"}, "FLT3 (human)": {"target": "FLT3 (human) (UniProt P36888)"}, "SRPK2 (human)": {"target": "SRPK2 (human) (UniProt P78362)", "sequence (P78362 whole entry, looked up)": "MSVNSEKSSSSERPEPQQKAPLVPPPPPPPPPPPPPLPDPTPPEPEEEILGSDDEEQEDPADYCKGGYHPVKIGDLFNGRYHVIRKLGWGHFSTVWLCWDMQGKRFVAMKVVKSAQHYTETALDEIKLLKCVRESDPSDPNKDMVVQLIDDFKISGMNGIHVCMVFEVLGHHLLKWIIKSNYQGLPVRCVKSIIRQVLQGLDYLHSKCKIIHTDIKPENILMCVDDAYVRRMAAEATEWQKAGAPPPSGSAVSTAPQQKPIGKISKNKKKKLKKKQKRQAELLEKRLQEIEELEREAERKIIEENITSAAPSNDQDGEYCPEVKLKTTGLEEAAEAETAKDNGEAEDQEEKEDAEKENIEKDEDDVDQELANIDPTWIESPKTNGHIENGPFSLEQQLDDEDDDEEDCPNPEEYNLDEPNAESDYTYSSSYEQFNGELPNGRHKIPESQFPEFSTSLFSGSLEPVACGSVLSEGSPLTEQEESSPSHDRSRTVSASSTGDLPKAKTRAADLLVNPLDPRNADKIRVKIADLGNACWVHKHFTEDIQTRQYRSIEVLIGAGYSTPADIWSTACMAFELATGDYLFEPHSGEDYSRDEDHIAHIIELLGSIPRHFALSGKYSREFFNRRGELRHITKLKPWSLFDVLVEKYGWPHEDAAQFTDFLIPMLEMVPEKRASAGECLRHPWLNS"}, "[1]": {"target": "JAK2 JH1 catalytic (human) (UniProt O60674)", "sequence (O60674 whole entry, looked up)": "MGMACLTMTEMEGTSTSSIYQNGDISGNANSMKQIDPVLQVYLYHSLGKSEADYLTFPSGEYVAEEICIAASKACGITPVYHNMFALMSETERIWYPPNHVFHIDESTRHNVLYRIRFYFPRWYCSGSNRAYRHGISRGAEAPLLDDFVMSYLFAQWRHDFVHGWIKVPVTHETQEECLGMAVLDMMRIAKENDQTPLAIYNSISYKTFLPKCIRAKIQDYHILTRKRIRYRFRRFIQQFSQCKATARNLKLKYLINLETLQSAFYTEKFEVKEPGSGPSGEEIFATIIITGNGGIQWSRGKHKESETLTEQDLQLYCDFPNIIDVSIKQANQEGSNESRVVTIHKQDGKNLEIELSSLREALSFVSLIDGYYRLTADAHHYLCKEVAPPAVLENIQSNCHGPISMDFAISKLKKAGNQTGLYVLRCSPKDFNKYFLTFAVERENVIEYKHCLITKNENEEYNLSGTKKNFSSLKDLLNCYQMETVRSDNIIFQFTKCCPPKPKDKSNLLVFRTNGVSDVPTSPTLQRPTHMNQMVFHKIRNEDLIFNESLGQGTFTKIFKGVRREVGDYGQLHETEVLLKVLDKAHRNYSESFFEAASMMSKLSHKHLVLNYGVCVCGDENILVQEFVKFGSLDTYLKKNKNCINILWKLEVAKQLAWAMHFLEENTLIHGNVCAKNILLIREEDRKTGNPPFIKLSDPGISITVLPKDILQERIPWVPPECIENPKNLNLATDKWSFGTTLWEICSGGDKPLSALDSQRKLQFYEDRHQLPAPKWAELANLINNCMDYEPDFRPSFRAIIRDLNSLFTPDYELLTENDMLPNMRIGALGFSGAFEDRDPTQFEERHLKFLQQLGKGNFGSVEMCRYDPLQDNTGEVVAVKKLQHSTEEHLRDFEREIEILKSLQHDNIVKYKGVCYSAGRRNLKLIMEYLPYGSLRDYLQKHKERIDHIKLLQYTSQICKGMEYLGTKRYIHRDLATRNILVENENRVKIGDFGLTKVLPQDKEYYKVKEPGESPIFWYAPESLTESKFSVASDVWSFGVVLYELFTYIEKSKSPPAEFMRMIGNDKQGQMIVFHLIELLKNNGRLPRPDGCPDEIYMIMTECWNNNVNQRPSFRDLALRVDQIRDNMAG"}, "TSSK1B (human)": {"target": "TSSK1B (human) (UniProt Q9BXA7)"}, "MARK1 (human)": {"target": "MARK1 (human) (UniProt Q9P0L2)"}, "[2]": {"system": "EIF2AK4 KD2 (human), Q9P2K8 [S808G]"}, "NLK (human)": {"target": "NLK (human) (UniProt Q9UBE8)"}, "TNK1 (human)": {"target": "TNK1 (human) (UniProt Q13470)"}, "MTOR (human)": {"target": "MTOR (human) (UniProt P42345)"}, "TNIK (human)": {"target": "TNIK (human) (UniProt Q9UKE5)"}, "MAP3K12 (human)": {"target": "MAP3K12 (human) (UniProt Q12852)", "sequence (Q12852 whole entry, looked up)": "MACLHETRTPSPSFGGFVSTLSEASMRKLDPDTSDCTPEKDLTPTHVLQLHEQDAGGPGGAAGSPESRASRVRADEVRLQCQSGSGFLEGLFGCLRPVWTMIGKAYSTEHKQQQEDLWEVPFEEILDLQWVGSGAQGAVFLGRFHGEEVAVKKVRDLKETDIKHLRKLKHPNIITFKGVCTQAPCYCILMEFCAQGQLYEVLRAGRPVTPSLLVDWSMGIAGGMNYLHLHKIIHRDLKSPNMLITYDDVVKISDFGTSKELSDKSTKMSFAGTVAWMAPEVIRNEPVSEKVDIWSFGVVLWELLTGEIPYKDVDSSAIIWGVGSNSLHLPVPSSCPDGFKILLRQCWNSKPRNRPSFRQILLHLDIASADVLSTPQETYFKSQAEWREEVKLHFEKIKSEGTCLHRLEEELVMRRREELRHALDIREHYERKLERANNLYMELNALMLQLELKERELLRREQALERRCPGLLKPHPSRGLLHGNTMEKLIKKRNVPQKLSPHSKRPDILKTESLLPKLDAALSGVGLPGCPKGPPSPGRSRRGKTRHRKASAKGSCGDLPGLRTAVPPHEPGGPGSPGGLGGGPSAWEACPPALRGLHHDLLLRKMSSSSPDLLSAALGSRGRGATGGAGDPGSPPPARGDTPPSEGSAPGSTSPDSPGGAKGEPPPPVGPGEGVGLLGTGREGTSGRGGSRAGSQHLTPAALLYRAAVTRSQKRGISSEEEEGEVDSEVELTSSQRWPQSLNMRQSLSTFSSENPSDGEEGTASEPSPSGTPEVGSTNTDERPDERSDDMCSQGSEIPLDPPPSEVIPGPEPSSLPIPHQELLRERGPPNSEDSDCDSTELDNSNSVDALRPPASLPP"}, "MAP3K11 (human)": {"target": "MAP3K11 (human) (UniProt Q16584)"}, "EIF2AK2 (human)": {"target": "EIF2AK2 (human) (UniProt P19525)"}, "PIM2 (human)": {"target": "PIM2 (human) (UniProt Q9P1W9)"}, "CSK (human)": {"target": "CSK (human) (UniProt P41240)"}, "STK25 (human)": {"target": "STK25 (human) (UniProt O00506)", "sequence (O00506 whole entry, looked up)": "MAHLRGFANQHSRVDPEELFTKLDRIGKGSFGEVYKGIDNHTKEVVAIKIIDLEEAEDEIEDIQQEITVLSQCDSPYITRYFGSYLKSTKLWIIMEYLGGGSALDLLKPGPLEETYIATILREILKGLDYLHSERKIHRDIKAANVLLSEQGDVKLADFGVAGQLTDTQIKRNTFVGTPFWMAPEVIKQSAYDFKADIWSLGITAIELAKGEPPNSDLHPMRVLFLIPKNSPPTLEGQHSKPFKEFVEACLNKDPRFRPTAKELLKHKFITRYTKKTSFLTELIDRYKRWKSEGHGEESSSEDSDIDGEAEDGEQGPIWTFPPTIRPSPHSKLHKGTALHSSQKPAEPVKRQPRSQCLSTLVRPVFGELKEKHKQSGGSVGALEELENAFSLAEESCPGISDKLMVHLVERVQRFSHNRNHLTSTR"}, "MAP3K6 (human)": {"target": "MAP3K6 (human) (UniProt O95382)"}, "DCLK2 (human)": {"target": "DCLK2 (human) (UniProt Q8N568)"}, "NEK2 (human)": {"target": "NEK2 (human) (UniProt P51955)"}, "TLK1 (human)": {"target": "TLK1 (human) (UniProt Q9UKI8)"}, "TESK1 (human)": {"target": "TESK1 (human) (UniProt Q15569)"}, "SGK3 (human)": {"target": "SGK3 (human) (UniProt Q96BR1)"}, "[3]": {"target": "TYK2 JH2 pseudokinase (human) (UniProt P29597)"}, "SRPK3 (human)": {"target": "SRPK3 (human) (UniProt Q9UPE1)"}, "TGFBR1 (human)": {"target": "TGFBR1 (human) (UniProt P36897)", "sequence (P36897 whole entry, looked up)": "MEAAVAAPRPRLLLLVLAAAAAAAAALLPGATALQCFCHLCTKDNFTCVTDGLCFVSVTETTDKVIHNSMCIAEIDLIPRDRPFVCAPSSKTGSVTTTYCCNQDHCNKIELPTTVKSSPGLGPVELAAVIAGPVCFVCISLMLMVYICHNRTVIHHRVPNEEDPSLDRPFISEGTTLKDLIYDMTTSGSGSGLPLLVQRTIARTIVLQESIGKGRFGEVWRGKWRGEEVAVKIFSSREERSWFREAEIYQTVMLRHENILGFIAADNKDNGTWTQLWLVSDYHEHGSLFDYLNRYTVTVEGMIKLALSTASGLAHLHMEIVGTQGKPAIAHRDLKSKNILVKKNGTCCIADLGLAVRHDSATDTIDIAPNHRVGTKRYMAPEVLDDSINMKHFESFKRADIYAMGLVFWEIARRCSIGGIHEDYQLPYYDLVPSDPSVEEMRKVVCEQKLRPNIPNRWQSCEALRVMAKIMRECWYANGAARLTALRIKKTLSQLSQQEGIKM"}, "ADCK4 (human)": {"target": "ADCK4 (human) (UniProt Q96D53)"}, "RPS6KA4 KD1 (human)": {"target": "RPS6KA4 KD1 (human) (UniProt O75676)"}, "PAK1 (human)": {"target": "PAK1 (human) (UniProt Q13153)"}, "DDR2 (human)": {"target": "DDR2 (human) (UniProt Q16832)"}, "STK32A (human)": {"target": "STK32A (human) (UniProt Q8WU08)"}, "MKNK2 (human)": {"target": "MKNK2 (human) (UniProt Q9HBH9)"}, "EPHA1 (human)": {"target": "EPHA1 (human) (UniProt P21709)"}, "CSNK1G3 (human)": {"target": "CSNK1G3 (human) (UniProt Q9Y6M4)", "sequence (Q9Y6M4 whole entry, looked up)": "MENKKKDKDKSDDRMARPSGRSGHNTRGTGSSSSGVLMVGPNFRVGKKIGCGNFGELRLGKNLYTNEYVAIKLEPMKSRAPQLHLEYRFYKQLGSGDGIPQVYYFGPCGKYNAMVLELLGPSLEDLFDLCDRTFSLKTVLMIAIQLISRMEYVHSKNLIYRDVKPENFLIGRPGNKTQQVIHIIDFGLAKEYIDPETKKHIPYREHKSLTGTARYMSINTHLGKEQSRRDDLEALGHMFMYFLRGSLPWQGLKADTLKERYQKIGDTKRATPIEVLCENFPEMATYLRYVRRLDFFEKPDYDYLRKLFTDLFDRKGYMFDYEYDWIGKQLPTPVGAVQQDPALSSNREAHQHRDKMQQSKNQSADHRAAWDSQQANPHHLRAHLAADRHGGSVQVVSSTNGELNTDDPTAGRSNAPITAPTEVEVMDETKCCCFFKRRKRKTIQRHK"}, "NEK5 (human)": {"target": "NEK5 (human) (UniProt Q6P3R8)"}, "MAP2K1 (human)": {"target": "MAP2K1 (human) (UniProt Q02750)", "sequence (Q02750 whole entry, looked up)": "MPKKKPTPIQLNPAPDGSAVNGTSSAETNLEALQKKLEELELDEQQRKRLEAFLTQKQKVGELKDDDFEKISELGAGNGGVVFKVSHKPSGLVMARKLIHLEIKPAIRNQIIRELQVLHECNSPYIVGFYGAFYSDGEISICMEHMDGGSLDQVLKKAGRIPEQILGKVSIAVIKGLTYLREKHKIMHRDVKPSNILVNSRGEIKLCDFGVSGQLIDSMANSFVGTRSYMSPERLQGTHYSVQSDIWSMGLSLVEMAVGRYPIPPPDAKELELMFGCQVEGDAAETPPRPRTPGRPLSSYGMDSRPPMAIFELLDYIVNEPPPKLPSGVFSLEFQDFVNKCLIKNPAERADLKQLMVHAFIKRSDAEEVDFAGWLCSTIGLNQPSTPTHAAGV"}, "IGF1R (human)": {"target": "IGF1R (human) (UniProt P08069)"}, "CAMK2G (human)": {"target": "CAMK2G (human) (UniProt Q13555)"}}}
{"smiles": "CNC(=O)c1cc(Oc2ccc(NC(=O)Nc3ccc(Cl)c(C(F)(F)F)c3)cc2)ccn1", "values": [{"measurement": "per cent of control", "setting": "ROCK2 (human)", "value": 90, "unit": "%"}, {"measurement": "per cent of control", "setting": "RPS6KA1 KD1 (human)", "value": 84, "unit": "%"}, {"measurement": "per cent of control", "setting": "STK38L (human)", "value": 95, "unit": "%"}, {"measurement": "per cent of control", "setting": "MAPK4 (human)", "value": 79, "unit": "%"}, {"measurement": "per cent of control", "setting": "FLT3 (human)", "value": 0.05, "unit": "%"}, {"measurement": "per cent of control", "setting": "SRPK2 (human)", "value": 100, "unit": "%"}, {"measurement": "per cent of control", "setting": "[1]", "value": 70, "unit": "%"}, {"measurement": "per cent of control", "setting": "TSSK1B (human)", "value": 98, "unit": "%"}, {"measurement": "per cent of control", "setting": "MARK1 (human)", "value": 90, "unit": "%"}, {"measurement": "per cent of control", "setting": "[2]", "value": 60, "unit": "%"}, {"measurement": "per cent of control", "setting": "NLK (human)", "value": 19, "unit": "%"}, {"measurement": "per cent of control", "setting": "TNK1 (human)", "value": 14, "unit": "%"}, {"measurement": "per cent of control", "setting": "MTOR (human)", "value": 100, "unit": "%"}, {"measurement": "per cent of control", "setting": "TNIK (human)", "value": 21, "unit": "%"}, {"measurement": "per cent of control", "setting": "MAP3K12 (human)", "value": 100, "unit": "%"}, {"measurement": "per cent of control", "setting": "MAP3K11 (human)", "value": 74, "unit": "%"}, {"measurement": "per cent of control", "setting": "EIF2AK2 (human)", "value": 74, "unit": "%"}, {"measurement": "per cent of control", "setting": "PIM2 (human)", "value": 89, "unit": "%"}, {"measurement": "per cent of control", "setting": "CSK (human)", "value": 52, "unit": "%"}, {"measurement": "per cent of control", "setting": "STK25 (human)", "value": 100, "unit": "%"}, {"measurement": "per cent of control", "setting": "MAP3K6 (human)", "value": 72, "unit": "%"}, {"measurement": "per cent of control", "setting": "DCLK2 (human)", "value": 95, "unit": "%"}, {"measurement": "per cent of control", "setting": "NEK2 (human)", "value": 90, "unit": "%"}, {"measurement": "per cent of control", "setting": "TLK1 (human)", "value": 74, "unit": "%"}, {"measurement": "per cent of control", "setting": "TESK1 (human)", "value": 72, "unit": "%"}, {"measurement": "per cent of control", "setting": "SGK3 (human)", "value": 72, "unit": "%"}, {"measurement": "per cent of control", "setting": "[3]", "value": 93, "unit": "%"}, {"measurement": "per cent of control", "setting": "SRPK3 (human)", "value": 84, "unit": "%"}, {"measurement": "per cent of control", "setting": "TGFBR1 (human)", "value": 100, "unit": "%"}, {"measurement": "per cent of control", "setting": "ADCK4 (human)", "value": 90, "unit": "%"}, {"measurement": "per cent of control", "setting": "RPS6KA4 KD1 (human)", "value": 81, "unit": "%"}, {"measurement": "per cent of control", "setting": "PAK1 (human)", "value": 100, "unit": "%"}, {"measurement": "per cent of control", "setting": "DDR2 (human)", "value": 13, "unit": "%"}, {"measurement": "per cent of control", "setting": "STK32A (human)", "value": 100, "unit": "%"}, {"measurement": "per cent of control", "setting": "MKNK2 (human)", "value": 0.1, "unit": "%"}, {"measurement": "per cent of control", "setting": "EPHA1 (human)", "value": 11, "unit": "%"}, {"measurement": "per cent of control", "setting": "CSNK1G3 (human)", "value": 100, "unit": "%"}, {"measurement": "per cent of control", "setting": "NEK5 (human)", "value": 100, "unit": "%"}, {"measurement": "per cent of control", "setting": "MAP2K1 (human)", "value": 95, "unit": "%"}, {"measurement": "per cent of control", "setting": "IGF1R (human)", "value": 100, "unit": "%"}, {"measurement": "per cent of control", "setting": "CAMK2G (human)", "value": 100, "unit": "%"}]}
{"smiles": "CNC(=O)c1cc(Oc2ccc(NC(=O)Nc3ccc(Cl)c(C(F)(F)F)c3)cc2)cc[n+]1[O-]", "values": [{"measurement": "per cent of control", "setting": "ROCK2 (human)", "value": 82, "unit": "%"}, {"measurement": "per cent of control", "setting": "RPS6KA1 KD1 (human)", "value": 91, "unit": "%"}, {"measurement": "per cent of control", "setting": "STK38L (human)", "value": 100, "unit": "%"}, {"measurement": "per cent of control", "setting": "MAPK4 (human)", "value": 78, "unit": "%"}, {"measurement": "per cent of control", "setting": "FLT3 (human)", "value": 0.1, "unit": "%"}, {"measurement": "per cent of control", "setting": "SRPK2 (human)", "value": 73, "unit": "%"}, {"measurement": "per cent of control", "setting": "[1]", "value": 68, "unit": "%"}, {"measurement": "per cent of control", "setting": "TSSK1B (human)", "value": 100, "unit": "%"}, {"measurement": "per cent of control", "setting": "MARK1 (human)", "value": 100, "unit": "%"}, {"measurement": "per cent of control", "setting": "[2]", "value": 70, "unit": "%"}, {"measurement": "per cent of control", "setting": "NLK (human)", "value": 11, "unit": "%"}, {"measurement": "per cent of control", "setting": "TNK1 (human)", "value": 6.6, "unit": "%"}, {"measurement": "per cent of control", "setting": "MTOR (human)", "value": 100, "unit": "%"}, {"measurement": "per cent of control", "setting": "TNIK (human)", "value": 3.9, "unit": "%"}, {"measurement": "per cent of control", "setting": "MAP3K12 (human)", "value": 100, "unit": "%"}, {"measurement": "per cent of control", "setting": "MAP3K11 (human)", "value": 89, "unit": "%"}, {"measurement": "per cent of control", "setting": "EIF2AK2 (human)", "value": 58, "unit": "%"}, {"measurement": "per cent of control", "setting": "PIM2 (human)", "value": 100, "unit": "%"}, {"measurement": "per cent of control", "setting": "CSK (human)", "value": 1, "unit": "%"}, {"measurement": "per cent of control", "setting": "STK25 (human)", "value": 32, "unit": "%"}, {"measurement": "per cent of control", "setting": "MAP3K6 (human)", "value": 64, "unit": "%"}, {"measurement": "per cent of control", "setting": "DCLK2 (human)", "value": 87, "unit": "%"}, {"measurement": "per cent of control", "setting": "NEK2 (human)", "value": 71, "unit": "%"}, {"measurement": "per cent of control", "setting": "TLK1 (human)", "value": 60, "unit": "%"}, {"measurement": "per cent of control", "setting": "TESK1 (human)", "value": 55, "unit": "%"}, {"measurement": "per cent of control", "setting": "SGK3 (human)", "value": 42, "unit": "%"}, {"measurement": "per cent of control", "setting": "[3]", "value": 99, "unit": "%"}, {"measurement": "per cent of control", "setting": "SRPK3 (human)", "value": 86, "unit": "%"}, {"measurement": "per cent of control", "setting": "TGFBR1 (human)", "value": 100, "unit": "%"}, {"measurement": "per cent of control", "setting": "ADCK4 (human)", "value": 81, "unit": "%"}, {"measurement": "per cent of control", "setting": "RPS6KA4 KD1 (human)", "value": 13, "unit": "%"}, {"measurement": "per cent of control", "setting": "PAK1 (human)", "value": 100, "unit": "%"}, {"measurement": "per cent of control", "setting": "DDR2 (human)", "value": 19, "unit": "%"}, {"measurement": "per cent of control", "setting": "STK32A (human)", "value": 92, "unit": "%"}, {"measurement": "per cent of control", "setting": "MKNK2 (human)", "value": 0.05, "unit": "%"}, {"measurement": "per cent of control", "setting": "EPHA1 (human)", "value": 18, "unit": "%"}, {"measurement": "per cent of control", "setting": "CSNK1G3 (human)", "value": 96, "unit": "%"}, {"measurement": "per cent of control", "setting": "NEK5 (human)", "value": 100, "unit": "%"}, {"measurement": "per cent of control", "setting": "MAP2K1 (human)", "value": 80, "unit": "%"}, {"measurement": "per cent of control", "setting": "IGF1R (human)", "value": 97, "unit": "%"}, {"measurement": "per cent of control", "setting": "CAMK2G (human)", "value": 96, "unit": "%"}]}
